The record followed here is ChEMBL document CHEMBL4610055, “Discovery and optimization of novel pyridines as highly potent and selective glycogen synthase kinase 3 inhibitors” (Bioorg Med Chem Lett, 2020).

Molecules are shown by their SMILES.

Data set [1] can be described thus: Inhibition of GSK3 (unknown origin) using CREB peptide as substrate. Also noted: species or system Homo sapiens.
Data set [2] can be described thus: Inhibition of GSK3 in CHO cells expressing insulin receptor assessed as activation of glycogen synthase measured after 30 mins in presence of glucose-6-phosphate by filter paper assay. Particulars: Cricetulus griseus, 0.5 h. In kind it is cell-based.
Data set [3] concerns the target Mitogen-activated protein kinase 8 (Homo sapiens) (UniProt P45983). The data set can be described thus: Inhibition of wild-type human full length JNK1 (M1 to Q384 residues) expressed in mammalian expression system at 10 uM by Kinomescan method relative to control.
Data set [4] addresses Glycogen synthase kinase-3 beta (Homo sapiens) (UniProt P49841). The data set can be described thus: Inhibition of wild-type human full length GSK3B (M1 to T433 residues) expressed in mammalian expression system at 10 uM by Kinomescan method relative to control.
In data set [5] the target is Mitogen-activated protein kinase 10 (Homo sapiens) (UniProt P53779). The data set can be described thus: Inhibition of wild-type human partial length JNK3 (V28 to Q422 residues) expressed in mammalian expression system at 10 uM by Kinomescan method relative to control.
Chain of Mitogen-activated protein kinase 10 (Homo sapiens) (P53779 whole entry, the tested form may be a part): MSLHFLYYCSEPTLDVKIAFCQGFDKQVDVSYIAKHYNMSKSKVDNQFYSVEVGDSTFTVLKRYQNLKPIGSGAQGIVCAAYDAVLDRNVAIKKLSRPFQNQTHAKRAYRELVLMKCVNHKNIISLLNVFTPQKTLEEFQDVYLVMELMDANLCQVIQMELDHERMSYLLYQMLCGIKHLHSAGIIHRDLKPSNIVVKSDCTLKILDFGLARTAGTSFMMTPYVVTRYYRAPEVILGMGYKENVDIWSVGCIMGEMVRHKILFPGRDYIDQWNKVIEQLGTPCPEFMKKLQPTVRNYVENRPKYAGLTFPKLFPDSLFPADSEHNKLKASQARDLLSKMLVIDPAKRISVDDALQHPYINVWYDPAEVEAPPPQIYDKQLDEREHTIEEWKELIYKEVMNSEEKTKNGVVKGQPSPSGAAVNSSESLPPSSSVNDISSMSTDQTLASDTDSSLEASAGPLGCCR
Data set [6] can be described thus: Half life in Beagle dog. In kind it is ADME, Canis lupus familiaris. The following applies: in vivo.
The nature of data set [7]: Half life in ZDF rat. Type of data set: ADME. Particulars: in vivo.
In data set [8] the target is Mitogen-activated protein kinase 9 (Homo sapiens) (UniProt P45984). The data set can be described thus: Inhibition of wild-type human full length JNK2 (M1 to Q382 residues) expressed in mammalian expression system at 10 uM by Kinomescan method relative to control.
Chain of Mitogen-activated protein kinase 9 (Homo sapiens) (P45984 whole entry, looked up, the tested form may be a part): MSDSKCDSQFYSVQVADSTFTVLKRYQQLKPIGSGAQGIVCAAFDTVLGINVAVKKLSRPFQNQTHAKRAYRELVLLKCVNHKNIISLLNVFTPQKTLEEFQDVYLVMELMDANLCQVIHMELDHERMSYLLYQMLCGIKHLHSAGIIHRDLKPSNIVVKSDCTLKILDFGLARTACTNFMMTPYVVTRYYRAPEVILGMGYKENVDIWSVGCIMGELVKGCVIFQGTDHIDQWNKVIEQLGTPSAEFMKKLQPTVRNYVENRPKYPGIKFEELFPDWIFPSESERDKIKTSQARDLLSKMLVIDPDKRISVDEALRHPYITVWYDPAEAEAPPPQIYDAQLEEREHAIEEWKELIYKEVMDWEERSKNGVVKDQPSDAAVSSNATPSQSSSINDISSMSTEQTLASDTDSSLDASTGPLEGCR
For data set [9], the target named is Serine/threonine-protein kinase B-raf (Homo sapiens) (UniProt P15056). The data set can be described thus: Inhibition of wild-type human partial length BRAF (S429 to E741 residues) expressed in mammalian expression system at 10 uM by Kinomescan method relative to control.
Chain of Serine/threonine-protein kinase B-raf (Homo sapiens) (P15056 whole entry, the tested form may be a part): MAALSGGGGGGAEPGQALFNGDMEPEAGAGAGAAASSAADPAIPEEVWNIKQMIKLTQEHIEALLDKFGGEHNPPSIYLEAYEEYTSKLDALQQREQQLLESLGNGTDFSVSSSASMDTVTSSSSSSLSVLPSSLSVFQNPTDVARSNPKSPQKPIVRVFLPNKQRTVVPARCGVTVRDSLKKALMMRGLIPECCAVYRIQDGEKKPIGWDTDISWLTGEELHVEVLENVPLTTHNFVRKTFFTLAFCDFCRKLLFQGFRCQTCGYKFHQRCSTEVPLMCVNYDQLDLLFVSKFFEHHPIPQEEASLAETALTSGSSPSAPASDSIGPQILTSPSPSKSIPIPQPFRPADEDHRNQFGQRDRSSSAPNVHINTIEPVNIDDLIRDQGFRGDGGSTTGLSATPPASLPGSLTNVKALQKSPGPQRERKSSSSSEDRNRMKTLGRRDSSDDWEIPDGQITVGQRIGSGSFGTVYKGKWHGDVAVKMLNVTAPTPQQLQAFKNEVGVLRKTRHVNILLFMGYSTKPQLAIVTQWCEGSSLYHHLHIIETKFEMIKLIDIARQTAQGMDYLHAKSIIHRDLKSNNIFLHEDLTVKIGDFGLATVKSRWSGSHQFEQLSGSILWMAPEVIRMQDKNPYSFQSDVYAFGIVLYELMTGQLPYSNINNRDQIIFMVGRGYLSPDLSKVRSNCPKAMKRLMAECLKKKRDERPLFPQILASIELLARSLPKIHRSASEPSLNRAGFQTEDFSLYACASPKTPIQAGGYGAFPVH
Data set [10] deals with Glycogen synthase kinase-3 alpha (Homo sapiens) (UniProt P49840). The data set can be described thus: Inhibition of wild-type human full length GSK3A (M1 to S483 residues) expressed in bacterial expression system at 10 uM by Kinomescan method relative to control.
Chain of Glycogen synthase kinase-3 alpha (Homo sapiens) (P49840 2-483 limits assumed): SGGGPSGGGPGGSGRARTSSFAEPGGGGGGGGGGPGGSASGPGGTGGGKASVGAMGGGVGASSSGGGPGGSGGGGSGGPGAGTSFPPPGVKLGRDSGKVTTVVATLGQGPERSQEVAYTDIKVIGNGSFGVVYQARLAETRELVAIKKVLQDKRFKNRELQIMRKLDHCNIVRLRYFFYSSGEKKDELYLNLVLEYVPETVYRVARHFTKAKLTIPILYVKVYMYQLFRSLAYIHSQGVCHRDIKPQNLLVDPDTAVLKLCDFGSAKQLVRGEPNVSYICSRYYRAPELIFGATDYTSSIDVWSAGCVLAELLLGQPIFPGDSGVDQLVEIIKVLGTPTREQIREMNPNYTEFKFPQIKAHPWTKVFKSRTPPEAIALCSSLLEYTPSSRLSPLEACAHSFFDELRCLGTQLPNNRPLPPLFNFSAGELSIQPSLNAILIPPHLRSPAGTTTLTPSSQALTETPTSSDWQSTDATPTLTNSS
Another data set has as its system Rattus norvegicus. The data set can be described thus: Antidiabetic activity in ZDF rat administered as single dose via oral gavage by OGTT. In kind it is functional.
The nature of data set [11]: Oral bioavailability in ZDF rat. In kind it is ADME, organism-based. Particulars: in vivo.
A short description of data set [12]: Activity in CHO cells expressing insulin receptor assessed as activation of glycogen synthase.

Chain of Glycogen synthase kinase-3 beta (Homo sapiens) (P49841 whole entry, looked up, the tested form may be a part): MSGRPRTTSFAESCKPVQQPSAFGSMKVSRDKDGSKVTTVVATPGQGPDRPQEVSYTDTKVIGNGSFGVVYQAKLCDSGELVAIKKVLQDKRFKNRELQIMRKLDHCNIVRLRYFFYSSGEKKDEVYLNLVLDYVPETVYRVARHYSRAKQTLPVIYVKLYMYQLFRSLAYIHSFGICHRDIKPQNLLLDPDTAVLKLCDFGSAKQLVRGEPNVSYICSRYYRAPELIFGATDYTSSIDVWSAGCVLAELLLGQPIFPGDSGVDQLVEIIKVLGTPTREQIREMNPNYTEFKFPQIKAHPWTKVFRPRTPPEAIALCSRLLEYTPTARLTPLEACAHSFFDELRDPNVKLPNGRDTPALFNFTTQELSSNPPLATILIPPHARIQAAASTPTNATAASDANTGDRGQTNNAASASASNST
Chain of Mitogen-activated protein kinase 8 (Homo sapiens) (P45983 whole entry, the tested form may be a part): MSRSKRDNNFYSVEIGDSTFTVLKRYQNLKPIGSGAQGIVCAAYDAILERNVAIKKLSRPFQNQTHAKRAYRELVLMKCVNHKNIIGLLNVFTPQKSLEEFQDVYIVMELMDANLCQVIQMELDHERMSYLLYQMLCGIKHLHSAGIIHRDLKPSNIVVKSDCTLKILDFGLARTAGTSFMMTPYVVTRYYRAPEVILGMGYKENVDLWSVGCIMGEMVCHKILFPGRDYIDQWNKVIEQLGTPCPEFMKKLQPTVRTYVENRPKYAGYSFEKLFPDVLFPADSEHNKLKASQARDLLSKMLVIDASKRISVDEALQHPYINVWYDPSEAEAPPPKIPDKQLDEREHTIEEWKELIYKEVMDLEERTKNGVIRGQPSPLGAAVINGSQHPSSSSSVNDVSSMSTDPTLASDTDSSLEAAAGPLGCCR

As usually defined, the IC50 is the midpoint of a concentration-inhibition curve. For orientation: EC50 means the concentration giving half of the maximal effect. With `CN1CCN(c2ccc(NCCNc3ccc([N+](=O)[O-])c(N)n3)nc2-c2ccccc2Cl)C(=O)C1`, the IC50 in data set [1] was 29 nM. Further, the EC50 in data set [2] was found to be 1350 nM.
On to `C[C@H](CNc1ccc([N+](=O)[O-])c(N)n1)Nc1ccc(N2CCN(C)CC2=O)c(-c2ccc(Cl)cc2Cl)n1`, for which half-maximal inhibition in [1] (IC50) was put at 207 nM.
The molecule `CN1CCN(c2ccc(NCCNc3ccc([N+](=O)[O-])c(N)n3)nc2-c2ccoc2)C(=O)C1` came in with an IC50 in data set [1] of 3700 nM.
Take `C[C@@H](CNc1ccc([N+](=O)[O-])c(N)n1)Nc1ccc(N2CCN(C)CC2=O)c(-c2ccc(Cl)cc2Cl)n1`: the IC50 in data set [1] turned out to be 36 nM. In data set [2], the EC50 turned out to be 310 nM.
Turning to `CN1CCN(c2ccc(NCCNc3ccc([N+](=O)[O-])c(N)n3)nc2-c2cccc(Cl)c2)C(=O)C1`, the IC50 in data set [1] was 74 nM. Moreover, the EC50 in [2] turned out to be 3000 nM.
Molecule `CCc1ccc(-c2nc(NCCNc3ccc([N+](=O)[O-])c(N)n3)ccc2N2CCN(C)CC2=O)cc1` came in with an IC50 in data set [1] of 52 nM. Moreover, in data set [2], the EC50 was 290 nM.
In data set [1], `Nc1nc(NCCNc2ccc(N3CCCCC3=O)c(-c3ccc(Cl)cc3Cl)n2)ccc1[N+](=O)[O-]` displayed an IC50 of 13 nM. The EC50 in data set [2] came to 70 nM.
By inhibition is commonly meant the drop in the measured response relative to a control, in per cent. In general, half-life refers to the time needed for the level to fall by half in the phase considered. Read a high half-life as slow decline. Usually ED50 stands for the dose at which the effect has come halfway, by size or by number of responders. High values mean weaker potency, low ones greater potency. Broadly, the bioavailability is dose-corrected exposure relative to a reference, in per cent. In turn, `CN1CCN(c2ccc(NCCNc3ccc([N+](=O)[O-])c(N)n3)nc2-c2ccc(Cl)cc2Cl)C(=O)C1` showed a 50% inhibitory concentration (IC50) in [1] of 8 nM. The EC50 in data set [2] was determined as 130 nM. The inhibition was 92.2% in data set [3]; 95.8% in data set [4]; 98.3% in data set [5]; 97.4% in [8]; 91.8% in data set [9]; 99.5% in data set [10]. For the same molecule, the half-life came out at 2.72 h in [6] and 3.42 h in data set [7]. In the data set with Rattus norvegicus, it took a dose of 10 mg/kg to reach the 50% effect level (ED50). In [11], this molecule yielded a bioavailability of 30%.
Turning to `C[C@@H](CNc1ccc(N2CCN(C)CC2=O)c(-c2ccc(Cl)cc2Cl)n1)Nc1ccc([N+](=O)[O-])c(N)n1`, 66 nM corresponded to half-maximal inhibition in data set [1] (IC50). In addition, the EC50 in [2] came out at 1050 nM.
The molecule `C[C@H](CNc1ccc(N2CCN(C)CC2=O)c(-c2ccc(Cl)cc2Cl)n1)Nc1ccc([N+](=O)[O-])c(N)n1` gave an IC50 in [1] of 1010 nM. In other words, the single-digit micromolar range.
As to `Nc1nc(NCCNc2ccc(N3CCNCC3=O)c(-c3ccc(Cl)cc3Cl)n2)ccc1[N+](=O)[O-]`, in [1], the IC50 is 11 nM. Moreover, the EC50 in data set [2] amounted to 140 nM.
With `CN1CCN(c2ccc(NCCNc3ccc([N+](=O)[O-])c(N)n3)nc2-c2ccc(F)cc2F)C(=O)C1`, inhibition in data set [1] was half-maximal at 69 nM (IC50). Further, in data set [2], the EC50 came to 1080 nM.
The matching figures for `Nc1nc(NCCNc2ccc(N3CCCC3=O)c(-c3ccc(Cl)cc3Cl)n2)ccc1[N+](=O)[O-]`: 5 nM and 530 nM.
In [1], `Nc1nc(NCCNc2ccc(N3CCN(CC(F)(F)F)CC3=O)c(-c3ccc(Cl)cc3Cl)n2)ccc1[N+](=O)[O-]` came in with an IC50 of 18 nM. Besides, the EC50 in data set [2] was found to be 1800 nM.
`CN1CCN(c2ccc(N(C)CCNc3ccc([N+](=O)[O-])c(N)n3)nc2-c2ccc(Cl)cc2Cl)C(=O)C1` returned an IC50 in data set [1] of 15 nM. The EC50 in data set [2] is 220 nM.
For `Nc1nc(NCCNc2ccc(N3CCOCC3=O)c(-c3ccc(Cl)cc3Cl)n2)ccc1[N+](=O)[O-]`, in data set [1], the midpoint of inhibition, the IC50, lay at 11 nM. The EC50 in [2] is 510 nM.
Consider `Cc1cnc(-c2cnc(NCCNc3ccc(C#N)cn3)nc2-c2ccc(Cl)cc2Cl)[nH]1` [LADUVIGLUSIB], for which the EC50 in [2] and in [12] was 770 nM throughout.
In the case of `CN1CCN(c2ccc(NCCNc3ccc([N+](=O)[O-])c(N)n3)nc2-c2ccc(Cl)cc2)C(=O)C1`, the midpoint of inhibition in data set [1], the IC50, lay at 44 nM. For the same molecule, the EC50 in [2] amounted to 760 nM.
In turn, `CN1CCN(c2ccc(NCCNc3ccc([N+](=O)[O-])c(N)n3)nc2-c2ccccc2C(F)(F)F)C(=O)C1` showed an IC50 in data set [1] of 57 nM. The EC50 in data set [2] came out at 760 nM.
For the molecule `CN1CCN(c2ccc(NCCNc3ccc([N+](=O)[O-])c(N)n3)nc2-c2ccccc2)C(=O)C1`, it took 202 nM to reach half-maximal inhibition in data set [1] (IC50).
`CC(=O)N1CCN(c2ccc(NCCNc3ccc([N+](=O)[O-])c(N)n3)nc2-c2ccc(Cl)cc2Cl)C(=O)C1` had an IC50 in [1] of 13 nM. Further, in [2], the EC50 was 1400 nM.
Consider `Nc1nc(NCCNc2ccc(NC(=O)CNCCO)c(-c3ccc(Cl)cc3Cl)n2)ccc1[N+](=O)[O-]`, for which, in data set [1], half-maximal inhibition (IC50) required 12 nM. For the same molecule, the EC50 in data set [2] was determined as 1600 nM.
In the case of `Nc1nc(NCCNc2ccc(N3CCN(C4CC4)CC3=O)c(-c3ccc(Cl)cc3Cl)n2)ccc1[N+](=O)[O-]`, it took 13 nM to reach half-maximal inhibition in data set [1] (IC50). Besides, the EC50 in [2] came to 40 nM.
